Laboratory results taken from patent US20220017491A1, “COMPOUND INHIBITING YAP-TEAD BINDING, AND PHARMACEUTICAL COMPOSITION FOR PREVENTING OR TREATING CANCER, COMPRISING COMPOUND AS ACTIVE INGREDIENT” (KOREA RESEARCH INSTITUTE OF CHEMICAL TECHNOLOGY, priority 2018, published 2022).

Tests used:
YAP-TEAD = assay: Luciferase assay of YAP-TEAD binding inhibition (TEAD luciferase reporter 8XGTIIC in HEK293T cells); type: cell-based; conditions: 10 μM, 24 hours, luciferase normalized with β-galactosidase
Procedure: A Luciferase assay which allows an inhibition degree of YAP-TEAD, previously reported in Cancers 2018, 10(5), 140, was used to measure an in vitro binding inhibition rate of YAP-TEAD.
HEK293T cells were purchased from American Type Culture Collection and incubated in DMEM media containing 10% FBS, L-glutamine, and penicillin/streptomycin. The HEK293T cells were seeded in a 24 well plate at a density of 1×10^5, and coated with polyethyleneamine (10 μg/mL). These cells were transfected with 8XGTIIC-luciferase (Addgene reference 34615) which is TEAD luciferase reporter plasmid and control β-galactosidase plasmid CMV-β-Gal using a lipofectamine 2000 reagent (Life Technologies, Inc.) according to the manufacturer's manual. Thereafter, the compound of the present invention was treated at a concentration of 10 μM for 24 hours, the cells were lysed using a Reporter lysis buffer (Promega, France), luciferase activity was read with a Mithras LB940 plate reader, and then normalization was performed with β-galactosidase.

HT29 cells = assay: Proliferation assay for HT29 colorectal cancer cells (CellTiter-Glo cell viability); type: cell-based; conditions: Homo sapiens, HT-29; HT29 colorectal cancer cell line, 72 hours, ATP detection
Procedure: HT-29 which is a commercially available colorectal cancer cell line was treated with trypsin-EDTA, incubated, and seeded in a 96 well plate. […] The treated cells were incubated for further 72 hours and cell viability was measured by an ATP detection method (CellTiter-Glo LuminescentCell Viability Assay, Promega).
In order to confirm the anticancer effect of the compounds according to the present invention, a proliferation assay for HT29 cells which are a colorectal cancer cell line was performed by the above method, and IC50 values as a result are listed in the following Table 4: […]

[1] = tested on: AOM/DSS-induced colorectal cancer; assay: Anticancer activity in AOM/DSS orthotopic syngeneic mouse model; type: in vivo, B6 mouse; conditions: intraperitoneally for three weeks; intestinal tissue FACS; FIG. 3
Procedure: In order to measure an anticancer effect in the state of immunity existing in a large intestine, a conventionally known AOM/DSS model was used to measure anticancer activity (J. Vis. Exp. (67), e4100 10.3791/4100, Cell Death & Dis. 2018, 9, 153).
A B6 mouse was adapted to an animal room for one week and then azoxymethane (AOM) was injected intraperitoneally at 10 mg/kg. After one week, the B6 mouse was supplied with a 2.5% dextran sulfate sodium (DSS) solution for one week and alternatively supplied with fresh water for two weeks, which was repeated three time, thereby causing colorectal cancer. After colorectal cancer was caused, the YAP-TEAD inhibition compound 17 of the present invention was injected intraperitoneally at 50 mg/kg, five times a week, for three weeks. After the dosing period was over, an intestine tissue was surgically isolated and the number and size of cancer tissue in the intestine tissue were measured and quantitatively analyzed, and the results are illustrated in FIGS. 1 to 3.
In addition, in order to confirm a ratio of Treg cells which play an important role in immunosuppression in cancer tissues, FACS analysis was performed. […]

SMILES | Inhibition(%) (YAP-TEAD) | IC50 (HT29 cells) | Treg cells in cancer tissue (FACS, CD4 and Fop3) [1]
COCCCN1C(=O)c2cccc3c(NC(=O)C4CCCN(S(=O)(=O)c5ccc6c(c5)OCO6)C4)ccc1c23 (stereo not shown) [Compound 56] | 63% | 9.8 µM | –
COCCCN1C(=O)c2cccc3c(NC(=O)C4CCCCN4S(=O)(=O)c4cccc5nsnc45)ccc1c23 (stereo not shown) [Compound 79] | 71% | 14 µM | –
COCCCN1C(=O)c2cccc3c(NC(=O)C4CCCCN4S(=O)(=O)c4ccc(OC)c(OC)c4)ccc1c23 (stereo not shown) [Compound 42] | 68% | 44.5 µM | –
N#CCCCN1C(=O)c2cccc3c(NC(=O)C4CCCCN4S(=O)(=O)c4cccs4)ccc1c23 (stereo not shown) [Compound 20] | 65% | 32.3 µM | –
COCCCN1C(=O)c2cccc3c(NC(=O)C4CCCCN4S(=O)(=O)c4ccc5c(c4)CCO5)ccc1c23 (stereo not shown) [Compound 39] | 66% | 20.3 µM | –
COCCCN1C(=O)c2cccc3c(NC(=O)C4CCCN(S(=O)(=O)c5ccc(Cl)s5)C4)ccc1c23 (stereo not shown) [Compound 29] | 87% | 12.2 µM | –
CN(CCCN1C(=O)c2cccc3c(NC(=O)C4CCCCN4S(=O)(=O)c4cccs4)ccc1c23)S(C)(=O)=O (stereo not shown) [Compound 117] | 85% | 12 µM | –
COCCCN1C(=O)c2cccc3c(NC(=O)C4CCCN(S(=O)(=O)c5ccc(Br)s5)C4)ccc1c23 (stereo not shown) [Compound 59] | 87% | 7.6 µM | –
N#CCCN1C(=O)c2cccc3c(NC(=O)C4CCCCN4S(=O)(=O)c4cccs4)ccc1c23 (stereo not shown) [Compound 21] | 59% | 34.2 µM | –
O=C(Nc1ccc2c3c(cccc13)C(=O)N2CCc1ccc([N+](=O)[O-])cc1)C1CCCCN1S(=O)(=O)c1cccs1 (stereo not shown) [Compound 16] | 77% | 4.24 µM | –
COC(C)(C)CCN1C(=O)c2cccc3c(NC(=O)C4CCCCN4S(=O)(=O)c4cccs4)ccc1c23 (stereo not shown) [Compound 58] | 65% | 10.2 µM | –
COCCCN1C(=O)c2cccc3c(NC(=O)C4CCCN(S(=O)(=O)c5ccc6c(c5)CCO6)C4)ccc1c23 (stereo not shown) [Compound 34] | 87% | 13.3 µM | –
COCCCN1C(=O)c2cccc3c(NC(=O)C4CCCN(S(=O)(=O)c5cccc6nsnc56)C4)ccc1c23 (stereo not shown) [Compound 69] | 94% | 16.8 µM | –
COCCCN1C(=O)c2cccc3c(NC(=O)C4CCCN(S(=O)(=O)c5c(Cl)nc6sccn56)C4)ccc1c23 (stereo not shown) [Compound 68] | 81% | 10.9 µM | –
COCCCN1C(=O)c2cccc3c(NC(=O)C4CCCCN4S(=O)(=O)c4cccs4)ccc1c23 (stereo not shown) [Compound 17] | 78% | 6.91 µM | Treg cell decrease was confirmed
COCCCN1C(=O)c2cccc3c(NC(=O)C4CCCCN4S(=O)(=O)c4ccc(-c5ccccn5)s4)ccc1c23 (stereo not shown) [Compound 118] | 84% | 2.9 µM | –
COCCCN1C(=O)c2cccc3c(NC(=O)C4CCCCN4S(=O)(=O)c4ccc(Cl)s4)ccc1c23 (stereo not shown) [Compound 30] | 56% | 22 µM | –
COCCCN1C(=O)c2cccc3c(NC(=O)C4CCCCN4S(=O)(=O)c4c(Cl)sc(Cl)c4Br)ccc1c23 (stereo not shown) [Compound 66] | 59% | 8.7 µM | –
COCCCN1C(=O)c2cccc3c(NC(=O)C4CCCCN4S(=O)(=O)c4sc(NC(C)=O)nc4C)ccc1c23 (stereo not shown) [Compound 43] | 50% | 35 µM | –
COCCCN1C(=O)c2cccc3c(NC(=O)C4CCCN(S(=O)(=O)c5scnc5C)C4)ccc1c23 (stereo not shown) [Compound 64] | 76% | 24.7 µM | –
COCCCN1C(=O)c2cccc3c(NC(=O)C4CCCCN4S(=O)(=O)c4cc(Br)c(Br)s4)ccc1c23 (stereo not shown) [Compound 80] | 77% | 5.6 µM | –
COc1ccc(CCN2C(=O)c3cccc4c(NC(=O)C5CCCCN5S(=O)(=O)c5cccs5)ccc2c34)cc1 (stereo not shown) [Compound 15] | 81% | 2.99 µM | –
COCCCN1C(=O)c2cccc3c(NC(=O)C4CCCCN4S(=O)(=O)c4cc5c(s4)CCCC5)ccc1c23 (stereo not shown) [Compound 84] | 83% | 8.2 µM | –
COCCCN1C(=O)c2cccc3c(NC(=O)C4CCCCN4S(=O)(=O)c4ccc5c(c4)OCCO5)ccc1c23 (stereo not shown) [Compound 83] | 92% | 19.4 µM | –
